This is an account of results in patent US10632081B2, “Intralymphatic delivery of hyaluronan nanoparticle for cancer metastasis” (priority 2015, dated 2020).

In series [1] the test system is SAS-LN. As to the kind of experiment: Anti-lymphatic metastasis in spontaneous lymphatic metastasis model of SAS-LN. The format is in vivo, BALB/c nude mice. The settings on record: iv, 3 mg Pt/kg, qw for 5 weeks, cervical lymph nodes by IVIS. The protocol: SAS-LN cells transfected with luciferase were suspended in PBS and were orthotropic implanted (2×10^5 cells per mouse) into the tongue of female BALB/c nude mice (6 to 8 weeks old). SAS-LN tumors were allowed to grow for 1 week. Cisplatin was administered by intravenous injection at dose of 3 mg Pt/kg, and CPHC008 was administered by subcutaneous injection into the buccal site at dose of 3 mg Pt/kg (n=10/group). All test articles were administrated once a week for 5 weeks. After sacrifice, cervical lymph nodes were collected to evaluate metastasis by bioluminescence imagine using IVIS.

Series [2] concerns B16-F10-luc2 cells. In words: In vitro cytotoxicity assay (MTT). The format is cell-based, Murine. The settings on record: 48 h treatment. The procedure:
B16-F10-luc2 cells were cultured in RPMI1640 medium supplemented with 10% heat-inactivated fetal bovine serum and maintained in a humidified 37° C., 5% CO2 incubator. B16-F10-luc2 cells were seeded on 96-well plate for 2×10^3 cells per well and incubated overnight at 37° C. Cells were treated with phosphate-buffered saline (PBS), oxaliplatin, or PtHC604 for 48 hours at 37° C. Cell viability was determined by MTT assay.

A short description of series [3]: Lymphatic delivery of PtHC604 by different injection routes. It counts as in vivo, Sprague Dawley (SD) rats. To be noted: iv, 9 mg Pt/kg, right axillary lymph node Pt. The protocol: […] […] […] Right axillary lymph nodes were harvested and stored at −80° C. until analysis. Platinum concentration in lymph nodes was analyzed by ICP-MS (THERMO XSERIES II).
Series [4] in a line: Lymphatic delivery of PtHC604 by subcutaneous injection in normal rats. It counts as in vivo, SD rats. To be noted: sc mammary fat pad, 1 mg Pt/kg. The protocol: To evaluate the lymphatic delivery, SD rats were placed under isoflurane anesthesia and injected subcutaneously into the right mammary fat pad with PtHC604, PtHC16001 or oxaliplatin (1 mg Pt/kg). […] Right axillary lymph nodes, sciatic nerves and plasma were harvested and stored at −80° C. until analysis. Platinum concentrations in lymph nodes and sciatic nerves were analyzed by ICP-MS. Platinum concentration in plasma was analyzed by ICP-OES.

The subject of series [5] is B16-F10-luc2. In words: Survival rate and anti-lymphatic metastasis in spontaneous lymphatic metastasis model of B16-F10-luc2. It counts as in vivo, C57BL/6 mice. The settings on record: for volume of popliteal lymph node (mean±SEM): 3 mg Pt/kg twice a week for 2 weeks. The source says: Prior inoculation of the cells, B16-F10-luc2 cells were harvested during the exponential growth period and washed twice with sterile PBS, and then suspended in PBS with 50% Matrigel (BD Biosciences). Respective 3×10^5 B16-F10-luc2 cells were implanted subcutaneously into the right hind foot pad of female C57BL/6 mice (6 to 8 weeks old). B16-F10-luc2 tumors were allowed to grow for 5 weeks, and the tumor cells spontaneously metastasized to regional popliteal lymph node. Lymphatic metastasis was confirmed by bioluminescence imagine using IVIS spectrum. Oxaliplatin was administered by intravenous or subcutaneous injection at the dose of 3 mg Pt/kg, and PtHC604 was administered by subcutaneous injection into the footpad at the same dose of 3 mg Pt/kg. All test articles were administrated twice a week for 2 weeks (n=6-8/group in one independent experiment). Tumor size was measured by calipers and converted into tumor volume using the following formula: V=LS^2/2 (where L is the longest diameter and S is the shortest diameter). Death was defined when mice dead or tumor volumes were >3000 mm^3. At the end of study, mice were sacrificed and the popliteal lymph node was collected for measurement. The volume of lymph node was measured by the same formula above: V=LS^2/2.

A short description of series [6]: Local toxicity assessment (Primary Dermal Irritation Index). It counts as in vivo, BALB/c mice. To be noted: sc foot pad. The protocol: Mice were weighted and grouped into (1) vehicle; (2) 0.3 mg Pt/kg oxaliplatin; (3) 1 mg Pt/kg oxaliplatin; (4) 3 mg Pt/kg Oxaliplatin; (5) 0.3 mg Pt/kg PtHC604; (6) 1 mg Pt/kg PtHC604; (7) 3 mg Pt/kg PtHC604, n=6/group. Each animal was treated once weekly for 4 weeks. The skin toxicities in the injection site were measured by erythema and oedema grading (Table 1). The skin toxicities potential was evaluated using Primary Dermal Irritation Index (PDII) by combining erythema and oedema grading, and classified into non-irritant, negligible-irritant, mild irritant, moderate irritant, and severe irritant (Table 2).

A short description of series [7]: Residual drug in injection site evaluation. The settings on record: 1 mg Pt/kg.
Protocol: After 4, 24, 48, and 96 hours post-injection, animals were euthanized by CO2. Each foot was harvested and stored at −80° C. until analysis. Platinum concentration in each foot was analyzed by ICP-MS.
Setting [8] is: 0.3 mg Pt/kg once weekly for 4 weeks.
Where [9] appears, read: 1 mg Pt/kg once weekly for 4 weeks.
The mark [10] stands for this setting: 3 mg Pt/kg once weekly for 4 weeks.

Regarding `N.N.[Cl][Pt][Cl]` [Cisplatin], the “Lymphatic metastasis (metastatic ratio)” value in series [1] and in series [1] (listed as cisplatin) was 78% each time.

By IC50 is commonly meant the concentration needed to halve the response being measured. A low value points to inhibition by little substance. In the case of `O=C1[O][Pt]2([NH][C@@H]3CCCC[C@H]3[NH]2)[O]C1=O` [Oxaliplatin, oxaliplatin], the IC50 in series [2] came to 650 nM. The “Lymphatic AUC0-96 h” value in series [3] was 468.7 µg·h/g. For the same molecule, the “AUC (96 h) (h * ug/g) Lymph node” value in series [4] (axillary lymph node Pt) is 66.0 µg·h/g. Also, the “AUC (96 h) (h * ug/g) Plasma” value in series [4] (plasma Pt) came to 6.7 µg·h/g. In series [4] (sciatic nerve Pt), the “AUC (96 h) (h * ug/g) Sciatic nerve” value turned out to be 12.0 µg·h/g. Also, the “volume of popliteal lymph node (mean±SEM)” value in series [5] (intravenous injection) amounted to 72.7±46.2 mm^3; in series [5] (subcutaneous injection) it was 129.2±103.9 mm^3. Further, the Median survival days in series [5] (iv, 3 mg Pt/kg, biw, mice bearing metastatic melanoma) turned out to be 7 days. Besides, the “Classification of dermal irritation” value in series [6] (setting [8]) was “Non-irritation”; in series [6] (setting [9]), “Mild irritation”; in series [6] (setting [10]), “Severe irritation”; in series [6] (3 mg Pt/kg once weekly for 4 weeks, listed as oxaliplatin), “Severe skin toxicities”. In addition, the Dermal irritation index in series [6] (setting [8]) came out at 0; in series [6] (setting [9]), 0.5; in series [6] (setting [10]), 4.8. Further, in series [7] (24 hour after sc footpad injection), the “residual Pt detected in the foot” value came out at 29%. Besides, the “Pt exposure in the foot” value in series [7] (sc footpad injection, up to 96 hours) is 4089 µg·h/mL.
